Read-outs that look alike come from different tables or passages of the source.
Legend:
[1] = system: Tetrahymena thermophila B1868VII
Procedure: (§1) Fermentations were carried out in a 1 l fermenter (700 ml working volume), 5 l fermenter (3 l working volume) and a 13 l fermenter (10 l working volume). The fermenters were equipped as standard with a pH electrode, a pO2 electrode, an aeration ring, a stirrer shaft with disk vein agitator, feed line for acid/alkali, feed line for feeding, inoculation fittings and sampling.
(§2) Fermentation conditions were as specified in Table 2.
(§3) To determine the biomass dry matter, 5 ml of cell culture were centrifuged for 10 min at 3400 g and 4° C., the supernatant was decanted and the cell pellet was frozen at −80° C. The frozen biomass was lyophilized and the weight of the biomass dry matter was determined.
(§4) The cell density was determined using the CASY 1 Cell Counter+Analyser System, Model TTC, Schärfe System. For measurement, the cells were diluted (1:500) in a weak CASY electrolyte solution and transported through a capillary of 150 μm diameter. The cells in a range of 15-50 μm particle size were counted.
(§5) The nonpolar lipid constituents (neutral lipids) were extracted from the biomass dry matter with n-hexane. For one batch, approximately 500 mg of biomass dry matter were stirred in 5 ml of n-hexane for 1 h at 60° C., then centrifuged for 2 min at 2700 g and the supernatant was purified by filtering off suspended matter. For the filtration, a Pasteur Pipette filled with cotton wool was used, having a fill height of approximately 1 cm. The cell residue for the first extraction was extracted a further time with 5 ml of solvent, the biomass was centrifuged off and the supernatant filtered. The purified organic phases of the two extractions were combined, the solvent was completely evaporated on a rotary evaporator and the amount of extracted lipid was determined by weighing.
(§6) The fatty acid spectrum was determined by means of a gas chromatograph (HP GC 6890) equipped with a flame ionization detector (Hewlett-Packard Company, Wilmington, USA). The column used was an FFAP (Free Fatty Acid Phase) Permbond (Macherey & Nagel GmbH, Düren). The fatty acids were identified by comparison with the retention times of fatty acid methyl ester standards. On the basis of the known concentration of the standard, the concentration of fatty acids in the samples could be determined.
(§7) 30-70 mg of the lyophilized biomass dry matter (see determination of biomass) were weighed out and were admixed with 1 ml of 20% strength methanolic HCl and 1 ml of methanolic standard solution (1 mg/ml). To liberate the fatty acids and transesterify them into fatty acid methyl esters, the samples were stirred in a closed test tube for two hours at 60° C. in a water bath and cooled to room temperature. To neutralize the sample, 1 ml of aqueous saturated sodium hydrogen carbonate solution was then added and the sample was mixed carefully. The fatty acid methyl esters were extracted by adding n-hexane. The batch was then mixed vigorously and phase separation was achieved by centrifuging for 2 min at 4300 rpm. About ⅔ of the upper organic phase was taken off and 1 μl of the sample was injected onto the GC column and analyzed (see also Table 5).
(§8) The fermentations were carried out in a 1-l fermenter containing 700 ml of MM-Var medium.

[2] = system: Tetrahymena thermophila B1868VII; conditions: for lipid content versus standard fermentation: NaAc feed
Procedure: as §1, §2, §3, §4, §5, §6, §7, §8

Tetrahymena = conditions: supplying acetate; cited from earlier work
Tetrahymena pyriformis = conditions: cited from earlier work
[3] = acetate added before inoculation and also during culture

Which “cell growth (cell density and biomass dry matter)” value [1] does the source give for `CC(=O)[O-].[Na+]` [NaAc, sodium acetate] here?
The value was “adversely affected cell growth”.

And the “formation of GLA product by volume” value [1]?
Its value is “decreased”.

What about the “GLA content of the biomass dry matter” value ([1]; 0.5 and 1.0 g/l NaAc in basal medium) of the same molecule?
Its value is “not altered”.

What about the NL/BDM ([1]; MM-VAR containing 0.5 g/l of NaAc, 46 h) of the same molecule?
The NL/BDM was 8 %(w/w).

And the NL/BDM ([1]; MM-VAR containing 0.5 g/l of NaAc, 70 h)?
Its NL/BDM is 17 %(w/w).

What about the NL/BDM ([1]; MM-VAR containing 1.0 g/l of NaAc, 46 h) of the same molecule?
The NL/BDM was 11 %(w/w).

What about the NL/BDM ([1]; MM-VAR containing 1.0 g/l of NaAc, 70 h) of the same molecule?
Its NL/BDM is 17 %(w/w).

And the “GLA content in the neutral lipid versus standard fermentation” value ([1]; NaAc added to MM-Var basal medium)?
Its value is “only slight differences”.

What about the NL content ([1]; NaAc added to MM-Var basal medium, after 70 h, standard […]%) of the same molecule?
The NL content was 17 % (w/w).

And the “lipid content versus standard fermentation” value ([1]; NaAc in basal medium, culture time 46 h)?
Its value is “no significant difference”.

And the GLA yield overall [1, 3]?
Its GLA yield overall is “impairment”.

What about the “fatty acid spectrum and GLA content of the biomass” value [1, 3] of the same molecule?
Its value is “no marked change”.

What about the growth [1, 3] of the same molecule?
The growth was “poorer growth”.

What about the “cell growth (cell density and BDM)” value [2] of the same molecule?
Its value is “adverse effect on the cell growth”.

What about the “formation of GLA product by volume” value [2] of the same molecule?
Its value is “impaired”.

What about the NL/BDM ([2]; Feed 0.02 g/l of NaAc, 46 h) of the same molecule?
Its NL/BDM is 8 %(w/w).

And the NL/BDM ([2]; Feed 0.02 g/l of NaAc, 70 h)?
The NL/BDM was 12 %(w/w).

And the NL/BDM ([2]; Feed 0.4 g/l of NaAc, 46 h)?
The NL/BDM was 9 %(w/w).

And the NL/BDM ([2]; Feed 0.4 g/l of NaAc, 70 h)?
Its NL/BDM is 13 %(w/w).

And the “GLA content of the biomass dry matter” value ([2]; NaAc fed during culturing)?
The value was “unchanged”.

And the “lipid content versus standard fermentation” value ([2]; after 70 h)?
Its value is “no significant increase”.

What about the “lipid content versus standard fermentation” value ([2]; culture time 46 h) of the same molecule?
Its value is “no difference”.

What about the “composition of the fatty acids” value (Tetrahymena) of the same molecule?
Its value is “not changed”.

And the cell count (Tetrahymena pyriformis; 0.1% acetate added to basal medium which does not contain glucose, […]10^5 without)?
Its cell count is 1.6×10^5 cells per ml.

What about the cell count (Tetrahymena pyriformis; acetate, basal medium which contains glucose, 1.85×10^5 without) of the same molecule?
Its cell count is 1.9×10^5 cells per ml.
